Patent US9096596B2 (Janssen Pharmaceutica NV, priority 2013, dated 2015)
pIC50, pKi: −log10 of the molar value. Read-outs that look alike come from different tables or passages of the source.

Assays:
P2X7 [1] = molecular target: T1, P2X7 (Homo sapiens (Human), UniProt Q99572); assay: Radioligand binding, human P2X7-1321N1 cell membranes, tracer tritiated A-804598
Method: (§1) On the day of the experiment, cell membrane preparations were made according to standard published methods. […] The compound can be prepared as described in the literature. […] The assay was terminated by filtration (GF/B filters pre-soaked with 0.3% PEI) and washed with washing buffer (Tris-HCl 50 mM). The IC50 generated in the binding assay was corrected for tracer concentration and affinity of the tracer to derive at the affinity (Ki) of the test compounds.

rat P2X7 [2] = molecular target: T2, rat P2X7 (Rattus norvegicus (Rat), UniProt Q64663); assay: Radioligand binding, rat P2X7-1321N1 cell membranes, tracer tritiated A-804598
Method: as §1

P2X7 [3] = molecular target: T1, P2X7; assay: Ca2+ flux (FLIPR) in 1321N1 cells expressing recombinant human P2X7 channel; type: cell-based; conditions: 250 μM BzATP, Calcium-4 dye
Method: 1321N1 cells expressing the recombinant human, rat or mouse P2X7 channel was cultured in HyQ DME/(HyClone/Dulbecco's Modified Eagle Medium) high glucose supplemented with 10% Fetal Bovine Serum (FBS) and appropriate selection marker. Cells were seeded at a density of 25000 cells/well (96-well clear bottom black walled plates) in 100 μl volume/well. On the day of the experiment, cell plates were washed with assay buffer, containing (in mM): 130 NaCl, 2 KCl, 1 CaCl2, 1 MgCl2, 10 HEPES, 5 glucose; pH 7.40 and 300 mOs. After the wash, cells were loaded with the Calcium-4 dye (Molecular Device) and incubated in the dark for 60 minutes. Test compounds were prepared at 250× the test concentration in neat DMSO. Intermediate 96-well compound plates were prepared by transferring 1.2 μL of the compound into 300 μL of assay buffer. A further 3× dilution occurred when transferring 50 μL/well of the compound plate to 100 μL/well in the cell plate. Cells were incubated with test compounds and dye for 30 minutes. […] The fluorescence change was measured 180 seconds after adding the agonist.

rat P2X7 [4] = molecular target: T2, rat P2X7; assay: Ca2+ flux (FLIPR) in 1321N1 cells expressing recombinant rat P2X7 channel; type: cell-based; conditions: 250 μM BzATP, Calcium-4 dye
Outline: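 1321N1 cells stably expressing P2X7 were loaded with Calcium-4 dye for 60 min in HEPES-buffered saline (pH 7.40, 1 mM CaCl2, 1 mM MgCl2), then preincubated with test compounds for 30 min. Fluorescence change was read 180 s after agonist addition.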

P2X7 [5] = molecular target: T1, P2X7; assay: P2X7 antagonism in human PBMCs (IL-1β release, ELISA); type: cell-based; conditions: test compound 10 μM, IL-1β release in human PBMCs, LPS 30 ng/ml + Bz-ATP 0.5 mM, read-out: PBMC 10 μM (% control)
Method: Human blood was collected using a blood donor program. […] Cells were incubated for an additional 1.5 hours. […] In Table 2, when the data cell has been left blank, it is intended to mean that the compound was not tested in that assay.

[6] = human P2X7-1321N1 membranes, 1 hour at 4° C., IC50 corrected for tracer concentration and affinity
[7] = rat P2X7-1321N1 membranes, 1 hour at 4° C., IC50 corrected for tracer concentration and affinity

T2 sequence (Q64663 whole entry): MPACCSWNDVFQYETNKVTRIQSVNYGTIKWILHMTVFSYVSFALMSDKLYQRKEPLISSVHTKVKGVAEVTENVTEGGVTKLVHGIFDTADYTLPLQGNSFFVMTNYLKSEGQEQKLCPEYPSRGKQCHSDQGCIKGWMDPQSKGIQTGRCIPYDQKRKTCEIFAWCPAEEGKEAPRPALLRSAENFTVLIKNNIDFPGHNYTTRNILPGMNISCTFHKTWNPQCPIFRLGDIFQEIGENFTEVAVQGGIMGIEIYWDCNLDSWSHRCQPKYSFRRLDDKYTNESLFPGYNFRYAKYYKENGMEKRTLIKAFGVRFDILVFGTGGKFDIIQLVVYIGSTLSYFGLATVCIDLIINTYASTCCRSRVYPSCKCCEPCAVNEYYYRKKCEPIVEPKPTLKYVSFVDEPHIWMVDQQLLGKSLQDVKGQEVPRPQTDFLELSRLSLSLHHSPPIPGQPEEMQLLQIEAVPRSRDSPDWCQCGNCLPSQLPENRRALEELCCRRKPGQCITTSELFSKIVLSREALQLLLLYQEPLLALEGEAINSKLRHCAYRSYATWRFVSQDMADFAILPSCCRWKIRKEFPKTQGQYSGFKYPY
T1 sequence (Q99572 whole entry): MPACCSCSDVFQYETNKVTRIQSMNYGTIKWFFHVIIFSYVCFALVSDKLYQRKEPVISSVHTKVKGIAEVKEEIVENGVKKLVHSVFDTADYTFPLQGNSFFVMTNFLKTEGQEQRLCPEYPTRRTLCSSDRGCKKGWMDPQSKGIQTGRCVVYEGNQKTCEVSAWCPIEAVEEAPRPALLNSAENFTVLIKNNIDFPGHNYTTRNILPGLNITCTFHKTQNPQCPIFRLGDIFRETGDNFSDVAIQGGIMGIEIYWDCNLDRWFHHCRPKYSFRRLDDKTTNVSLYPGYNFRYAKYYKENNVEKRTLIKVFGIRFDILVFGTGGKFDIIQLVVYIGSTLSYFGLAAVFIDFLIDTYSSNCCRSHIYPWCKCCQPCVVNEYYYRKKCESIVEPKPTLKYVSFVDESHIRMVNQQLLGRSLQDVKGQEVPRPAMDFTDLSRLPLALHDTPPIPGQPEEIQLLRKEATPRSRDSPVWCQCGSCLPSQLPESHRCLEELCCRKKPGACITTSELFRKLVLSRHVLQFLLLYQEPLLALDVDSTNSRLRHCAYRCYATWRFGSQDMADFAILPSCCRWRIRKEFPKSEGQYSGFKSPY

Row | Structure (SMILES) | pKi (P2X7 [1]; [6]) | pKi (rat P2X7 [2]; [7]) | pIC50 (P2X7 [3]) | pIC50 (rat P2X7 [4]) | remaining activity at 10 µM (P2X7 [5]) [%] | pKi (P2X7 [1]) | pKi (rat P2X7 [2])
1 | Cc1nc2c(c(-c3ccn[nH]3)n1)CCN(C(=O)c1cccc(Cl)c1Cl)C2 [Example 34, 7-[(2,3-Dichlorophenyl)carbonyl]-2-methyl-4-(1H-pyrazol-5-yl)-5,6,7,8-tetrahydropyrido[3,4-d]pyrimidine] | 7.20 | 7.70 | 7.06 | 5.70 | – | – | –
2 | Cc1nc2c(c(-c3[nH]ncc3F)n1)CCN(C(=O)c1cccc(Cl)c1Cl)C2 [Example 36, 7-[(2,3-Dichlorophenyl)carbonyl]-4-(4-fluoro-1H-pyrazol-5-yl)-2-methyl-5,6,7,8-tetrahydropyrido[3,4-d]pyrimidine] | 7.10 | 7.50 | – | – | – | – | –
3 | Cc1nc2c(c(-c3ccn[nH]3)n1)CC(C)N(C(=O)c1ccc(Cl)cc1)C2 (centres unmarked) [Example 96, (4-chlorophenyl)(2,6-dimethyl-4-(1H-pyrazol-5-yl)-5,6-dihydropyrido[3,4-d]pyrimidin-7(8H)-yl)methanone] | 6.20 | – | 7.30 | 5.73 | 3.8 | – | –
4 | O=C(c1cccc(C(F)(F)F)c1Cl)N1CCc2c(ncnc2-n2nccn2)C1 [Example 108, 7-{[2-Chloro-3-(trifluoromethyl)phenyl]carbonyl}-4-(2H-1,2,3-triazol-2-yl)-5,6,7,8-tetrahydropyrido[3,4-d]pyrimidine] | – | 8.10 | – | 7.17 | – | – | –
5 | O=C(c1cccc(C(F)(F)F)c1F)N1CCc2c(ncnc2-c2ccn[nH]2)C1 [Example 111, (4-(1H-pyrazol-5-yl)-5,6-dihydropyrido[3,4-d]pyrimidin-7(8H)-yl)(2-fluoro-3-(trifluoromethyl)phenyl)methanone] | 7.30 | – | 6.45 | 6.09 | 0.6 | – | –
6 | Cc1nc2c(c(-c3ccn[nH]3)n1)CC(C)N(C(=O)c1ccccc1Cl)C2 (centres unmarked) [Example 97, (2-chlorophenyl)(2,6-dimethyl-4-(1H-pyrazol-5-yl)-5,6-dihydropyrido[3,4-d]pyrimidin-7(8H)-yl)methanone] | 6.70 | – | 6.78 | 4.85 | -3.1 | – | –
7 | Cc1nc2c(c(-c3ccn[nH]3)n1)CC(C)N(C(=O)c1cccc(C(F)(F)F)c1C)C2 (centres unmarked) [Example 77, (2,6-dimethyl-4-(1H-pyrazol-5-yl)-5,6-dihydropyrido[3,4-d]pyrimidin-7(8H)-yl)(2-methyl-3-(trifluoromethyl)phenyl)methanone] | 7.50 | – | 7.20 | – | 20.9 | – | –
8 | CC1Cc2c(nc(N)nc2-c2ccn[nH]2)CN1C(=O)c1cccc(C(F)(F)F)c1Cl (centres unmarked) [Example 63, (2-amino-6-methyl-4-(1H-pyrazol-5-yl)-5,6-dihydropyrido[3,4-d]pyrimidin-7(8H)-yl)(2-chloro-3-(trifluoromethyl)phenyl)methanone] | 7.65 | – | 6.50 | 8.60 | -4.1 | – | –

The remaining molecules from weak to strong by pIC50 (P2X7 [3]), led by results:

Row | pKi (P2X7 [1]; [6]) | pKi (rat P2X7 [2]; [7]) | pIC50 (P2X7 [3]) | pIC50 (rat P2X7 [4]) | remaining activity at 10 µM (P2X7 [5]) [%] | pKi (P2X7 [1]) | pKi (rat P2X7 [2]) | Structure (SMILES)
9 | 7.02 | 6.60 | 7.44 | 5.49 | – | – | – | O=C(c1cccc(Cl)c1Cl)N1CCc2c(ncnc2-c2ccccc2)C1 [Example 2, 7-[(2,3-Dichlorophenyl)carbonyl]-4-phenyl-5,6,7,8-tetrahydropyrido[3,4-d]pyrimidine]
10 | – | – | 7.51 | 7.89 | – | 7.60 | 8.46 | Cc1nc2c(c(-c3ccn(CCF)n3)n1)C[C@@H](C)N(C(=O)c1cccc(C(F)(F)F)c1Cl)C2 (single isomer, unassigned) [Example 124, (R*)-(2-chloro-3-(trifluoromethyl)phenyl)(4-(1-(2-fluoroethyl)-1H-pyrazol-3-yl)-2,6-dimethyl-5,6-dihydropyrido[3,4-d]pyrimidin-7(8H)-yl)methanone]
11 | – | – | 7.53 | 8.01 | – | 7.50 | 8.52 | COCCn1ccc(-c2nc(C)nc3c2C[C@@H](C)N(C(=O)c2cccc(C(F)(F)F)c2Cl)C3)n1 (single isomer, unassigned) [Example 128, (R*)-(2-chloro-3-(trifluoromethyl)phenyl)(4-(1-(2-methoxyethyl)-1H-pyrazol-3-yl)-2,6-dimethyl-5,6-dihydropyrido[3,4-d]pyrimidin-7(8H)-yl)methanone]
12 | 6.70 | – | 7.55 | 6.41 | -1.7 | – | – | Cc1nc2c(c(-c3ccn[nH]3)n1)CC(C)N(C(=O)c1ccc(F)cc1F)C2 (centres unmarked) [Example 93, (2,4-difluorophenyl)(2,6-dimethyl-4-(1H-pyrazol-5-yl)-5,6-dihydropyrido[3,4-d]pyrimidin-7(8H)-yl)methanone]
13 | 7.20 | 7.50 | 7.60 | 5.50 | – | – | – | O=C(c1cccc(Cl)c1Cl)N1CCc2c(ncnc2-c2cnccn2)C1 [Example 14, 7-[(2,3-Dichlorophenyl)carbonyl]-4-pyrazin-2-yl-5,6,7,8-tetrahydropyrido[3,4-d]pyrimidine]
14 | 7.00 | – | 7.68 | 6.26 | 5 | – | – | CN(C)c1nc2c(c(-c3ccn[nH]3)n1)CCN(C(=O)c1cccc(C(F)(F)F)c1Cl)C2 [Example 54, 7-{[2-Chloro-3-(trifluoromethyl)phenyl]carbonyl}-N,N-dimethyl-4-(1H-pyrazol-5-yl)-5,6,7,8-tetrahydropyrido[3,4-d]pyrimidin-2-amine]
15 | 7.20 | – | 7.76 | 5.96 | 12.9 | – | – | O=C(c1cccc(C(F)(F)F)c1Cl)N1CCc2c(ncnc2-c2cccc(F)n2)C1 [Example 130, (2-chloro-3-(trifluoromethyl)phenyl)(4-(6-fluoropyridin-2-yl)-5,6-dihydropyrido[3,4-d]pyrimidin-7(8H)-yl)methanone]
16 | 7.20 | – | 7.78 | 6.79 | -9.6 | – | – | O=C(c1cccc(C(F)(F)F)c1Cl)N1CCc2c(nc(C3CC3)nc2-c2ccn[nH]2)C1 [Example 57, 7-{[2-Chloro-3-(trifluoromethyl)phenyl]carbonyl}-2-cyclopropyl-4-(1H-pyrazol-5-yl)-5,6,7,8-tetrahydropyrido[3,4-d]pyrimidine]
17 | 7.90 | – | 7.92 | 6.31 | 2.2 | – | – | O=C(c1cccc(C(F)(F)F)c1Cl)N1CCc2c(ncnc2-n2cnnc2)C1 [Example 109, (4-(4H-1,2,4-triazol-4-yl)-5,6-dihydropyrido[3,4-d]pyrimidin-7(8H)-yl)(2-chloro-3-(trifluoromethyl)phenyl)methanone]
18 | 7.70 | 8.30 | 7.99 | 7.12 | – | – | – | O=C(c1cccc(C(F)(F)F)c1Cl)N1CCc2c(ncnc2-c2ccn[nH]2)C1 [Example 18, (4-(1H-pyrazol-5-yl)-5,6-dihydropyrido[3,4-d]pyrimidin-7(8H)-yl)(2-chloro-3-(trifluoromethyl)phenyl)methanone]
19 | 7.60 | – | 8.11 | 8.25 | 44.7 | – | – | CC1Cc2c(ncnc2-c2ccn[nH]2)CN1C(=O)c1cccc(C(F)(F)F)c1Cl (centres unmarked) [Example 62, (2-chloro-3-(trifluoromethyl)phenyl)(6-methyl-4-(1H-pyrazol-5-yl)-5,6-dihydropyrido[3,4-d]pyrimidin-7(8H)-yl)methanone]
